Laboratory results reported in patent publication US9969776B2, “Drug conjugates for delivering compounds to senescent cells” (Unity Biotechnology, Inc., priority 2007, dated 2018).
“Also recorded” adds a separate entry of the source. Where two headings read alike, the source gives them in different places. Where no end group is shown, it is not given here.

Assays:
[1] = 1×iv, mice; cited from earlier work
[2] = cited from earlier work
[3] = test system: prostate epithelial cells (RWPE-1); test: Cytotoxicity, LDH release (CytoTox-ONE); type: cell-based; conditions: immortalized prostate epithelial cells RWPE-1, 2 hours at 37° C.
senescent fibroblasts [4] = test: Cytotoxicity, LDH release (CytoTox-ONE); type: cell-based; conditions: 2 hours at 37° C.
[5] = test system: non-senescent fibroblasts; test: Cytotoxicity, LDH release (CytoTox-ONE); type: cell-based; conditions: 2 hours at 37° C.
senescent fibroblasts [6] = test: Cell Proliferation Assay WST-1; type: cell-based
Method: (§1) Cell proliferation was assayed using the Cell Proliferation Reagent WST-1 (Roche, Mannheim, Germany) by following the manufacturer's instructions.

[7] = test system: non-senescent fibroblasts; test: Cell Proliferation Assay WST-1; type: cell-based
Method: as §1

[8] = test system: immortalized prostate epithelial cells; test: Cell Proliferation Assay WST-1; type: cell-based
Method: as §1

normal fibroblasts = test: Cell binding assay with radio-labeled peptide
Method: (§2) A senescent cell binding agent (SEQ ID NO:1) was conjugated at its C terminus to the linker sequence GGGC (SEQ ID NO:9) by synthesizing both as a single construct (i.e., SenC; SEQ ID NO:5). The purpose of attaching GGGC was that it can be used to chelate reduced 99m-Tc for radio-labeling. A 2 μL aliquot of conjugated senescent cell binding agent (3 M) was mixed with 40 μL of 0.25 M ammonium acetate, 15 μL of tartrate buffer pH 8.7, 4 μL of stannous chloride in 100 mM of sodium tartrate, and 30 μL of 99m-Tc pertechnetate. The mixture was heated for 25 minutes at 95° C. Quality control was performed with Sep-Pak and was always above 90% purity. A small aliquot was also injected on a Waters 600 HPLC to check the radiological profile. Fractions were collected and read on a gamma counter (Perkin-Elmer Wallac Wizard 1470).
(§3) Binding of radio-labeled SenC (SEQ ID NO:5) to senescent and non-senescent cells was tested by competition with unlabeled SenC. Peptide solutions were prepared to contain 0 or 20 μM of unlabeled SenC, 15 nM radio-labeled SenC, and 0.2% BSA. Chemically-induced senescent fibroblasts, their non-senescent counterparts, and prostate epithelial cells were prepared as above, harvested, and centrifuged. The cell pellets were resuspended in fresh media without FBS, and cells were counted. Peptide solution containing 0 or 20 μM unlabeled SenC and constant concentrations of SenC and 10^5 senescent cells were combined in a final volume of 200 μL of PBS in Eppendorf tubes and incubated for 4 hours. Cells were pelleted by centrifuging at 2500 rpm for 2 minutes and washed twice with PBS and 0.2% BSA. Pellets were suspended in 5 μL PBS and transferred to 12×75 mm tubes for counting radioactivity using a gamma counter (Perkin-Elmer Wallac Wizard 1470).

senescent cells = test: Cell binding assay with radio-labeled peptide
Method: as §2, §3

prostate epithelium = test: Cell binding assay with radio-labeled peptide
Method: as §2, §3

[9] = absence of unlabeled peptide, 15 nM radio-labeled SenC, 4 hours
[10] = presence of 20 μM unlabeled SenC

Molecule: CC[C@@]1(O)C(=O)OCc2c1cc1n(c2=O)Cc2cc3c(CN(C)C)c(O)ccc3nc2-1 [topotecan]
- LD1Omice [1]: 75 mg/m^2

Molecule: CC[C@]1(O)C[C@@H]2CN(CCc3c([nH]c4ccccc34)[C@@](C(=O)OC)(c3cc4c(cc3OC)N(C)[C@H]3[C@@](O)(C(=O)OC)[C@H](OC(C)=O)[C@]5(CC)C=CCN6CC[C@]43[C@@H]65)C2)C1 [vinblastine]
- MTD ([2]; escalating): 3.3-11.1 mg/m^2
- MTD ([2]; rarely to): 18.5 mg/m^2

Molecule: GVYHFAPLTPTPGGGSKFAKFAKKFAKFAK (GVYHFAPLTPTPGGSKFAKFAKKFAKFAK) [SenL]
- cell death (percentage of cells killed) [3]: no cell death at all; also recorded: No cell death was observed
- cell death (percentage of cells killed) (senescent fibroblasts [4]): dose-dependent cell death at a significantly higher rate than either non-senescent fibroblasts or prostate epithelial cells
- cell death (percentage of cells killed) [5]: some cytotoxicity is observed
- cell proliferation (WST-1, metabolic activity) (senescent fibroblasts [6]): no change in cell proliferation; also recorded: no significant effect on metabolic activity
- cell proliferation (WST-1, metabolic activity) [7]: no change in cell proliferation; also recorded: no significant effect on metabolic activity
- cell proliferation (WST-1, metabolic activity) [8]: no change in cell proliferation; also recorded: no significant effect on metabolic activity

Molecule: radio-labeled SenC: SenC (SEQ ID NO:5) radio-labeled with 99m-Tc chelated by GGGC (GVYHFAPLTPTPGGGC; also: 99mTc chelated by GGGC)
- specificity of binding (absence vs. presence of unlabeled SenC) (normal fibroblasts): nonspecific
- bound peptide, average (normal fibroblasts; [9]): 0.08 % of added dose
- bound peptide, average (normal fibroblasts; [10]): 0.09 % of added dose
- specificity of binding (absence vs. presence of unlabeled SenC) (senescent cells): specific binding
- bound peptide, average (senescent cells; [9]): 0.32 % of added dose
- bound peptide, average (senescent cells; [10]): 0.25 % of added dose
- specificity of binding (absence vs. presence of unlabeled SenC) (prostate epithelium): nonspecific
- bound peptide, average (prostate epithelium; [9]): 0.06 % of added dose
- bound peptide, average (prostate epithelium; [10]): 0.06 % of added dose
